Experimental data reported in US6737383B1, “Herbicidal oxadiazolidines” (priority 1999, dated 2004).

Legend:
[1] = test system: surinam grass; assay: Test B pre/postemergence surinam grass; assay type: in vivo, Brachiaria decumbens; settings: for B. signalgrass plant response rating: scale of 0 to 10 where 0 is no effect and 10 is complete control
Outline: (§1)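 Herbicidal effect was estimated by eye on a ten-point control scale after plants spent twelve to sixteen days in a greenhouse following soil or foliar treatment. Foliar sprays targeted plants at one to four leaves; all doses were formulated in a non-phytotoxic solvent with surfactant.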

[2] = test system: cocklebur; assay: Test B pre/postemergence cocklebur; assay type: in vivo, Xanthium strumarium; settings: for Cocklebur plant response rating: scale of 0 to 10 where 0 is no effect and 10 is complete control
Outline: as §1

[3] = test system: corn; assay: Test B pre/postemergence corn; assay type: in vivo, Zea mays; settings: for Corn plant response rating: scale of 0 to 10 where 0 is no effect and 10 is complete control
Outline: as §1

[4] = test system: crabgrass; assay: Test B pre/postemergence crabgrass; assay type: in vivo, Digitaria sanguinalis; settings: for Crabgrass plant response rating: scale of 0 to 10 where 0 is no effect and 10 is complete control
Outline: as §1

[5] = test system: giant foxtail; assay: Test B pre/postemergence giant foxtail; assay type: in vivo, Setaria faberii; settings: for Giant foxtail plant response rating: scale of 0 to 10 where 0 is no effect and 10 is complete control
Outline: as §1

[6] = test system: morningglory; assay: Test B pre/postemergence morningglory; assay type: in vivo, Ipomoea hederacea; settings: for Morningglory plant response rating: scale of 0 to 10 where 0 is no effect and 10 is complete control
Outline: as §1

[7] = test system: pigweed; assay: Test B pre/postemergence pigweed; assay type: in vivo, Amaranthus retroflexus; settings: for Redroot pigweed plant response rating: scale of 0 to 10 where 0 is no effect and 10 is complete control
Outline: as §1

[8] = test system: rape; assay: Test B pre/postemergence rape; assay type: in vivo, Brassica napus; settings: for Rape plant response rating: scale of 0 to 10 where 0 is no effect and 10 is complete control
Outline: as §1

[9] = test system: sugar beet; assay: Test B pre/postemergence sugar beet; assay type: in vivo, Beta vulgaris; settings: for Sugarbeets plant response rating: scale of 0 to 10 where 0 is no effect and 10 is complete control
Outline: as §1

[10] = test system: wheat; assay: Test B pre/postemergence wheat; assay type: in vivo, Triticum aestivum; settings: for Wheat plant response rating: scale of 0 to 10 where 0 is no effect and 10 is complete control
Outline: as §1

[11] = test system: wild oat; assay: Test B pre/postemergence wild oat; assay type: in vivo, Avena fatua; settings: for Wild oats plant response rating: scale of 0 to 10 where 0 is no effect and 10 is complete control
Outline: as §1

[12] = test system: purple nutsedge; assay: Test B pre/postemergence purple nutsedge; assay type: in vivo, Cyperus rotundus; settings: for Nutsedge plant response rating: scale of 0 to 10 where 0 is no effect and 10 is complete control
Outline: as §1

[13] = test system: rice; assay: Test B flood test rice; assay type: in vivo, Oryza sativa
Outline: (§2)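 Each value is a visual injury score relative to controls, with 10 meaning complete control and 0 no effect. Evaluation took place twelve to sixteen days after the 2-leaf-stage plants were treated and kept in the greenhouse.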

[14] = test system: smallflower flatsedge; assay: Test B flood test smallflower flatsedge; assay type: in vivo, Cyperus difformis
Outline: as §2

[15] = test system: duck salad; assay: Test B flood test duck salad; assay type: in vivo, Heteranthera limosa
Outline: as §2

[16] = test system: bamyardgrass; assay: Test B flood test barnyardgrass; assay type: in vivo, Echinochloa crus-galli
Outline: as §2

[17] = Postemergence, Rate 125 g/ha, scale 0 to 10, 0 is no effect, 10 is complete control
[18] = Postemergence, Rate 250 g/ha, scale 0 to 10, 0 is no effect, 10 is complete control
[19] = Preemergence, Rate 62 g/ha, scale 0 to 10 (0 no effect, 10 complete control)
[20] = Rate 500 g/ha, Postemergence, scale 0 to 10, 0 no effect, 10 complete control
[21] = Postemergence (flood test), Rate 125 g/ha, scale 0 to 10, 0 is no effect, 10 is complete control
[22] = Rate 62 g/ha, Postemergence (flood test species), scale of 0 to 10 where 0 is no effect and 10 is complete control
[23] = Rate 62 g/ha, flood test species, Pre-emergence, visual evaluation after twelve to sixteen days
[24] = Rate 125 g/ha, Pre-emergence, flood test species, scale 0 to 10 where 0 is no effect and 10 is complete control
[25] = Rate 250 g/ha, Pre-emergence, flood-test species, scale 0 to 10, 0 is no effect, 10 is complete control
[26] = Rate 500 g/ha, listed under Postemergence (flood test species), scale 0 to 10, 0 no effect, 10 complete control
[27] = Rate 500 g/ha, Pre-emergence, flood test species, scale 0 to 10 (0 no effect, 10 complete control)
[28] = flood test species, listed under Postemergence, Rate 250 g/ha, scale 0 to 10, 0 is no effect, 10 is complete control

## CC1CC1n1c(=O)on(C(=O)N(c2ccc(Cl)cc2)C(C)C)c1=O (centres unmarked) [Compound 369]
[1]; [17]
  Plant response rating, B. signalgrass: 0
[1]; [18]
  Plant response rating, B. signalgrass: 0
[1]; [19]
  Plant response rating, B. signalgrass: 0
[1]; Preemergence, Rate 125 g/ha
  B. signalgrass plant response rating (0 to 10 scale, 0 is no effect, 10 is complete control): 0
[1]; Preemergence, Rate 250 g/ha
  B. signalgrass plant response rating: 2
[1]; Preemergence, Rate 500 g/ha
  B. signalgrass plant response rating: 2
[1]; Rate 62 g/ha, Postemergence
  B. signalgrass plant response rating: 0
[1]; [20]
  Plant response rating, B. signalgrass: 3
[2]; [17]
  Plant response rating, Cocklebur: 0
[2]; [18]
  Plant response rating, Cocklebur: 0
[2]; [19]
  Plant response rating, Cocklebur: 0
[2]; Preemergence, Rate 125 g/ha
  Cocklebur plant response rating (0 to 10 scale): 0
[2]; Preemergence, Rate 250 g/ha
  Cocklebur plant response rating: 0
[2]; Preemergence, Rate 500 g/ha
  Cocklebur plant response rating: 0
[2]; Rate 62 g/ha, Postemergence
  Cocklebur plant response rating: 0
[2]; [20]
  Plant response rating, Cocklebur: 0
[3]; [17]
  Plant response rating, Corn: 0
[3]; [18]
  Plant response rating, Corn: 0
[3]; [19]
  Plant response rating, Corn: 0
[3]; Preemergence, Rate 125 g/ha
  Corn plant response rating (0 to 10 scale): 0
[3]; Preemergence, Rate 250 g/ha
  Corn plant response rating: 0
[3]; Preemergence, Rate 500 g/ha
  Corn plant response rating: 0
[3]; Rate 62 g/ha, Postemergence
  Corn plant response rating: 0
[3]; [20]
  Plant response rating, Corn: 0
[4]; [17]
  Plant response rating, Crabgrass: 0
[4]; [18]
  Plant response rating, Crabgrass: 2
[4]; [19]
  Plant response rating, Crabgrass: 5
[4]; Preemergence, Rate 125 g/ha
  Crabgrass plant response rating (0 to 10 scale): 7
[4]; Preemergence, Rate 250 g/ha
  Crabgrass plant response rating: 9
[4]; Preemergence, Rate 500 g/ha
  Crabgrass plant response rating: 10
[4]; Rate 62 g/ha, Postemergence
  Crabgrass plant response rating: 0
[4]; [20]
  Plant response rating, Crabgrass: 9
[5]; [17]
  Plant response rating, Giant foxtail: 0
[5]; [18]
  Plant response rating, Giant foxtail: 2
[5]; [19]
  Plant response rating, Giant foxtail: 8
[5]; Preemergence, Rate 125 g/ha
  Giant foxtail plant response rating (0 to 10 scale): 9
[5]; Preemergence, Rate 250 g/ha
  Giant foxtail plant response rating: 10
[5]; Preemergence, Rate 500 g/ha
  Giant foxtail plant response rating: 10
[5]; Rate 62 g/ha, Postemergence
  Giant foxtail plant response rating: 0
[5]; [20]
  Plant response rating, Giant foxtail: 9
[6]; [17]
  Plant response rating, Morningglory: 10
[6]; [18]
  Plant response rating, Morningglory: 10
[6]; [19]
  Plant response rating, Morningglory: 0
[6]; Preemergence, Rate 125 g/ha
  Morningglory plant response rating (0 to 10 scale): 0
[6]; Preemergence, Rate 250 g/ha
  Morningglory plant response rating: 0
[6]; Preemergence, Rate 500 g/ha
  Morningglory plant response rating: 0
[6]; Rate 62 g/ha, Postemergence
  Morningglory plant response rating: 7
[6]; [20]
  Plant response rating, Morningglory: 10
[7]; [17]
  Plant response rating, Redroot pigweed: 0
[7]; [18]
  Plant response rating, Redroot pigweed: 0
[7]; [19]
  Plant response rating, Redroot pigweed: 0
[7]; Preemergence, Rate 125 g/ha
  Redroot pigweed plant response rating (0 to 10 scale): 4
[7]; Preemergence, Rate 250 g/ha
  Redroot pigweed plant response rating: 10
[7]; Preemergence, Rate 500 g/ha
  Redroot pigweed plant response rating: 10
[7]; Rate 62 g/ha, Postemergence
  Redroot pigweed plant response rating: 0
[7]; [20]
  Plant response rating, Redroot pigweed: 4
[8]; [17]
  Plant response rating, Rape: 0
[8]; [18]
  Plant response rating, Rape: 0
[8]; [19]
  Plant response rating, Rape: 0
[8]; Preemergence, Rate 125 g/ha
  Rape plant response rating (0 to 10 scale): 0
[8]; Preemergence, Rate 250 g/ha
  Rape plant response rating: 2
[8]; Preemergence, Rate 500 g/ha
  Rape plant response rating: 5
[8]; Rate 62 g/ha, Postemergence
  Rape plant response rating: 0
[8]; [20]
  Plant response rating, Rape: 3
[9]; [17]
  Plant response rating, Sugarbeets: 0
[9]; [18]
  Plant response rating, Sugarbeets: 0
[9]; [19]
  Plant response rating, Sugarbeets: 0
[9]; Preemergence, Rate 125 g/ha
  Sugarbeets plant response rating (0 to 10 scale): 0
[9]; Preemergence, Rate 250 g/ha
  Sugarbeets plant response rating: 2
[9]; Preemergence, Rate 500 g/ha
  Sugarbeets plant response rating: 4
[9]; Rate 62 g/ha, Postemergence
  Sugarbeets plant response rating: 0
[9]; [20]
  Plant response rating, Sugarbeets: 2
[10]; [17]
  Plant response rating, Wheat: 0
[10]; [18]
  Plant response rating, Wheat: 0
[10]; [19]
  Plant response rating, Wheat: 0
[10]; Preemergence, Rate 125 g/ha
  Wheat plant response rating (0 to 10 scale): 0
[10]; Preemergence, Rate 250 g/ha
  Wheat plant response rating: 0
[10]; Preemergence, Rate 500 g/ha
  Wheat plant response rating: 0
[10]; Rate 62 g/ha, Postemergence
  Wheat plant response rating: 0
[10]; [20]
  Plant response rating, Wheat: 4
[11]; [17]
  Plant response rating, Wild oats: 0
[11]; [18]
  Plant response rating, Wild oats: 0
[11]; [19]
  Plant response rating, Wild oats: 0
[11]; Preemergence, Rate 125 g/ha
  Wild oats plant response rating (0 to 10 scale): 0
[11]; Preemergence, Rate 250 g/ha
  Wild oats plant response rating: 0
[11]; Preemergence, Rate 500 g/ha
  Wild oats plant response rating: 7
[11]; Rate 62 g/ha, Postemergence
  Wild oats plant response rating: 0
[11]; [20]
  Plant response rating, Wild oats: 4
[12]; [17]
  Plant response rating, Nutsedge: 0
[12]; [18]
  Plant response rating, Nutsedge: 0
[12]; [19]
  Plant response rating, Nutsedge: 0
[12]; Preemergence, Rate 125 g/ha
  Nutsedge plant response rating (0 to 10 scale): 0
[12]; Preemergence, Rate 250 g/ha
  Nutsedge plant response rating: 0
[12]; Preemergence, Rate 500 g/ha
  Nutsedge plant response rating: 5
[12]; Rate 62 g/ha, Postemergence
  Nutsedge plant response rating: 0
[12]; [20]
  Plant response rating, Nutsedge: 3
[13]; [21]
  Plant response rating, Rice: 0
[13]; [22]
  Rice plant response rating: 0
[13]; [23]
  Plant response rating, Rice (0 to 10 scale, 0 is no effect, 10 is complete control): 0
[13]; [24]
  Rice plant response rating: 0
[13]; [25]
  Rice plant response rating: 0
[13]; [26]
  Plant response rating, Rice: 0
[13]; [27]
  Rice plant response rating: 0
[13]; [28]
  Plant response rating, Rice: 0
[14]; [21]
  Plant response rating, S. Flatsedge: 2
[14]; [22]
  S. Flatsedge plant response rating: 0
[14]; [23]
  Plant response rating, S. Flatsedge (0 to 10 scale, 0 is no effect, 10 is complete control): 0
[14]; [24]
  S. Flatsedge plant response rating: 0
[14]; [25]
  S. Flatsedge plant response rating: 0
[14]; [26]
  Plant response rating, S. Flatsedge: 4
[14]; [27]
  S. Flatsedge plant response rating: 0
[14]; [28]
  Plant response rating, S. Flatsedge: 2
[15]; [21]
  Plant response rating, Ducksalad: 0
[15]; [22]
  Ducksalad plant response rating: 0
[15]; [23]
  Plant response rating, Ducksalad (0 to 10 scale, 0 is no effect, 10 is complete control): 0
[15]; [24]
  Ducksalad plant response rating: 0
[15]; [25]
  Ducksalad plant response rating: 0
[15]; [26]
  Plant response rating, Ducksalad: 2
[15]; [27]
  Ducksalad plant response rating: 0
[15]; [28]
  Plant response rating, Ducksalad: 2
[16]; [21]
  Plant response rating, Barnyardgrass: 0
[16]; [22]
  Barnyardgrass plant response rating: 0
[16]; [23]
  Plant response rating, Barnyardgrass (0 to 10 scale, 0 is no effect, 10 is complete control): 0
[16]; [24]
  Barnyardgrass plant response rating: 0
[16]; [25]
  Barnyardgrass plant response rating: 0
[16]; [26]
  Plant response rating, Barnyardgrass: 2
[16]; [27]
  Barnyardgrass plant response rating: 0
[16]; [28]
  Plant response rating, Barnyardgrass: 0
